The values below come from patent US4782058A, “1,3,4,6,7,11b-Hexahydro-6-phenyl-2H-pyrazino-(2,1-a)isoquinolines, for anti-histamine or anti-depression treatment” (Pennwalt Corporation, priority 1987, dated 1988).

The test system of test [1] is tetrabenazine-induced ptosis. In words: inhibition of tetrabenazine-induced ptosis in mice. The format is in vivo. Particulars: Mus musculus, po; male CF-1 mice, orally administered 15 min before i.v. tetrabenazine; ptosis rated 30-150 min; read-out: lowest active dose (LAD). As to the method:
A particularly useful compound with respect to antidepressant activity is the title compound of Example 1 (i.e., the cis-diastereoisomeric form of the compound of formula I in which R1 is methyl, R2 is methoxy, and R3 is hydrogen). That compound was tested for antidepressant activity by measuring its ability to inhibit tetrabenazine-induced ptosis in mice.
Male CF-1 mice weighing 19-32 grams were housed for a minimum of 5 days under a 12 hour light/dark (6 am/6 pm) schedule at 70°-74° F. and relative humidity of 30-50%. Food and water were available ad libitum until the time of administration of test compounds. Mice in groups of ten were orally administered (via gastric intubation) either the control solution (distilled water, 10 ml/kg) or the test compound. The test compound was either dissolved in distilled water or suspended in distilled water containing a drop of polyoxyethylene 20 sorbitan monooleate, sold under the trademark, Tween 80. After fifteen minutes, a dose of 10 ml/kg of a solution of tetrabenazine (as its methane sulfonate salt) in distilled water (4 mg/ml) was administered by intravenous injection. The degree of palpebral closure (ptosis) was determined 30, 60, 90, 120, and 150 minutes after administration of the tetrabenazine solution. […]

Test [2] deals with T1, histamine H1 -receptors (Rattus norvegicus, UniProt P31390).
T1 construct: homogenated rat cerebral tissue; from tissue; host or cells: rat cerebral tissue, homogenate
T1 sequence (P31390 whole entry): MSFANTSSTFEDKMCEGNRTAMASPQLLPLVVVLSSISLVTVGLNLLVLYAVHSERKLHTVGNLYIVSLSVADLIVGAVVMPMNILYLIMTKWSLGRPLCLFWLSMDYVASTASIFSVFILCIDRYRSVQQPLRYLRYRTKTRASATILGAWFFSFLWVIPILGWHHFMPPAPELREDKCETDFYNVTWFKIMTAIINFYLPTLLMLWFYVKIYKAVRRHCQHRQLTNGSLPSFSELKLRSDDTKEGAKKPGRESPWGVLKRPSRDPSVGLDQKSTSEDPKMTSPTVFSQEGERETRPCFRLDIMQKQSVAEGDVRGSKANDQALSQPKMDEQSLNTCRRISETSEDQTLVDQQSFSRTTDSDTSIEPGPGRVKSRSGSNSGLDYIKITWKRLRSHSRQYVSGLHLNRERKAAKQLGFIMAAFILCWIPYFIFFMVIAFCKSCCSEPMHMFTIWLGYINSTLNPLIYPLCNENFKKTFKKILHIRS
In words: inhibition of binding of 3H-pyrilamine to homogenated rat cerebral tissue. Particulars: 3H-pyrilamine binding, read-out: IC50 (50% inhibitory concentration). The protocol: That compound was assayed for anti-histamine activity by measuring its ability to inhibit the binding of 3H-pyrilamine to homogenated rat cerebral tissue. (3H-Pyrilamine is a radioligand that is used to characterize histamine H1 -receptors in brain tissue.) Assay conditions were essentially those of V. T. Tran et al, Proc. Nat'l. Acad. Sci. (USA) 75, p. 6290-6294 (1978).

Counter-ions that a name gives are not always drawn.

Consider `COc1ccc2c(c1)C[C@@H](c1ccccc1)N1CCN(C)C[C@@H]21` (relative stereo) [Example 1, cis-1,3,4,6,7,11b-hexahydro-9-methoxy-2-methyl-6-phenyl-2H-pyrazino[2,1-a]isoquinoline dihyrochloride], for which the minimal effective dose in test [1] stood at 20 mg/kg.

`CN1CCN2[C@@H](c3ccccc3)Cc3cc(O)ccc3[C@@H]2C1` (relative stereo) [Example 2, cis-1,3,4,6,7,11b-hexahydro-9-hydroxy-2-methyl-6-phenyl-2H-pyrazino[2,1-a]isoquinoline dihydrobromide]: the IC50 in test [2] is 250 nM.
